Results published in PMC10709440, “High-throughput ligand profile characterization in novel cell lines expressing seven heterologous insect olfactory receptors for the detection of volatile plant biomarkers” (Scientific Reports, 2023).

Experiments:
OR49b = tested on: OR49b; parameters: method as in earlier work; details: DoOR database value; ref DoOR; cited from earlier work
OR47a = tested on: OR47a; parameters: method as in earlier work; details: DoOR database value; ref DoOR; cited from earlier work
OR71a = tested on: OR71a; parameters: method as in earlier work; details: DoOR database value; ref DoOR; cited from earlier work
OR98a = tested on: OR98a; parameters: method as in earlier work; details: DoOR database value; ref DoOR; cited from earlier work
OR10a = tested on: OR10a; parameters: method as in earlier work; details: DoOR database value; ref DoOR; cited from earlier work
OR85b = tested on: OR85b; parameters: method as in earlier work; details: DoOR database value; ref DoOR; cited from earlier work
OR13a = tested on: OR13a; parameters: method as in earlier work; details: DoOR database value; ref DoOR; cited from earlier work
Drosophila OR85b = target: T1, Drosophila OR85b (Drosophila melanogaster, UniProt Q9VHQ7); assay: Calcium ion fluorescence (GCaMP6) assay, OR85b stable HEK293 cell line; format: cell-based; details: for activation at 1 µM / activation at 10 µM / activation at 100 µM: HEK293, read-out: OR85b response (VUAA1-normalized response); for Average response: OR85b cell line, VUAA1-normalized response, mean of biological replicates
T1 construct: expressed in transfected cells
T1 sequence (Q9VHQ7 1-390): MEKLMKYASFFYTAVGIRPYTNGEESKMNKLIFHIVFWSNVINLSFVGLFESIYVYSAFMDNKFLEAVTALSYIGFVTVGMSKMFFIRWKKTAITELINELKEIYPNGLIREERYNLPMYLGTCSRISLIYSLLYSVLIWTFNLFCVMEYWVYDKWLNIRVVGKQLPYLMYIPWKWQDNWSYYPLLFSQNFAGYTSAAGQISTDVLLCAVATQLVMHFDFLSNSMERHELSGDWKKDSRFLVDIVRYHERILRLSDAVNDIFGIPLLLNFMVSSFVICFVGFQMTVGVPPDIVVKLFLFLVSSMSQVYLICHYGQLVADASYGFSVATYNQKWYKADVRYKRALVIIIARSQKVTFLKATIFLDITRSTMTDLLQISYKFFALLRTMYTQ
T1 sequence (Q9VNB5 1-486 partner): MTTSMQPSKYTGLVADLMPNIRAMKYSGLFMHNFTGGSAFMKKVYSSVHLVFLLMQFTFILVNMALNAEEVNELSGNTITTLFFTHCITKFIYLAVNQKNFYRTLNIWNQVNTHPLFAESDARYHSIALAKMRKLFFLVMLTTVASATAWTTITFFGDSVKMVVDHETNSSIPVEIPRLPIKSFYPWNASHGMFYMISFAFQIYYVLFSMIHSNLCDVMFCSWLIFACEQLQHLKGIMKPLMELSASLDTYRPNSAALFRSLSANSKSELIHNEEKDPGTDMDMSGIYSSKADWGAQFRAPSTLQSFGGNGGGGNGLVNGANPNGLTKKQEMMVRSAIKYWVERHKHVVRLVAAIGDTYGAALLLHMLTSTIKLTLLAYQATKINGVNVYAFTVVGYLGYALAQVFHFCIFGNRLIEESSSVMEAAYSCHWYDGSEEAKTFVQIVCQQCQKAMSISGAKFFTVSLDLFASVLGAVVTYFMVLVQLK
Method in brief: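 Responses are VUAA1-normalized ΔF: each VOC-evoked calcium signal, (FMAX−F0)/F0 over 30 s after injection, divided by the same line's mean 50 µM VUAA1 response. Cells were doxycycline-induced HEK293 with GCaMP6 and the cognate Drosophila OR, in HEPES buffer pH 7.3; ligands tested 0.01–100 μM.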

[1] = ligand concentration 1 (unit not given), threshold 0.05, below shown as 0
[2] = ligand concentration 10 (unit not given), threshold 0.05, below shown as 0
[3] = ligand concentration 100 (unit not given), threshold 0.05, below shown as 0

| SMILES | OR49b DoOR response (OR49b) | OR47a DoOR response (OR47a) | OR71a DoOR response (OR71a) | OR98a DoOR response (OR98a) | OR10a DoOR response (OR10a) | OR85b DoOR response (OR85b) | OR13a DoOR response (OR13a) | activation at 1 µM (Drosophila OR85b) [%] | activation at 10 µM (Drosophila OR85b) [%] | activation at 100 µM (Drosophila OR85b) [%] | Average response (Drosophila OR85b; cc. 1 µM) | Average response (Drosophila OR85b; cc. 10 µM) | Average response (Drosophila OR85b; cc. 100 µM) | DF norm AVERAGE OR85b (Drosophila OR85b; concentration 1, normalized fluorescence change, values below 0.05 threshold given as 0) | DF norm AVERAGE OR85b (Drosophila OR85b; concentration 10, normalized fluorescence change, values below 0.05 threshold given as 0) | DF norm AVERAGE OR85b (Drosophila OR85b; concentration 100, normalized fluorescence change, values below 0.05 threshold given as 0) | DF norm AVERAGE OR85b (Drosophila OR85b; [1]) | DF norm AVERAGE OR85b (Drosophila OR85b; [2]) | DF norm AVERAGE OR85b (Drosophila OR85b; [3]) |
| --- | --- | --- | --- | --- | --- | --- | --- | --- | --- | --- | --- | --- | --- | --- | --- | --- | --- | --- | --- |
| Cc1ccc(O)cc1 [4-methylphenol] | 0.43 | -0.037 | 0.64 | 0.085 | 0.24 | 0.37 | 0.019 | 0 | 0 | 0 | 0.00 | 0.04 | 0.00 | 0 | 0 | 0 |  |  |  |
| CC(=O)c1ccccc1 [acetophenone] | 0.07 | 0.11 | 0.05 | 0.21 | 0.64 | 0.04 | 0.02 | 0 | 0 | 0 | 0.00 | 0.00 | 0.00 |  |  |  | 0 | 0 | 0 |
| CC(=O)OCCC(C)C [isopentyl acetate] | 0.027 | 0.41 | 0.03 | 0.64 | 0.42 | 0.34 | 0.15 | 0 | 7 | 0 | 0.00 | 0.07 | 0.0239 |  |  |  | 0 | 0.07146 | 0 |
